Measured values from article PMC11589570, “Critical assessment of LC3/GABARAP ligands used for degrader development and ligandability of LC3/GABARAP binding pockets” (Nature Communications, 2024).
Where two headings read alike, the source gives them in different places.

Tests used:
GABARAPL2 = GABARAPL2 (Homo sapiens, UniProt P60520); details: GABARAPL2:ligand molar ratio 1:2
[1] = system: RPE-1 GFP-LC3B-RPF-LC3∆G reporter cell line; test: Autophagy flux assay; type: cell-based; details: rebuttal letter
Source text: LC3/GABARAP in vitro, but no attempts are made to replicate the previously reported cellular activity of these compounds. It would be beneficial to know whether these compounds have any effect on autophagy in the authors’ hands, and therefore could act by alternative mechanisms, or whether they […]
Response: We were very concerned that the ligands used for ATTEC development might induce general toxicity in cell lines, as they are based on drugs used in oncology (such as the kinesin inhibitor 10O5) and the isoxazole scaffold often used in the development of multi-targeted kinase inhibitors. However, we have now investigated compounds 1-4 in autophagy flux assays using the RPE-1 GFP-LC3B-RPF-LC3∆G reporter cell line (single clone) as […]
reported in [PMID:37558952].
(RR_Figure 6). The authors of the first manuscript reporting these ligands [PMID: 31666698]
However, due to the potent activity of 8F20 on KIF11, which will have profound effects on cell trafficking and growth, and DCAF11 (AN1, [PMID: 38036533]), we find it unlikely that the effects on autophagy are due to LC3/GABARAP modulation. Due to the lack of target (LC3/GABARAP) binding in vitro and the […]
of this review but have excluded the data in the manuscript.
RR_figure 5: Autophagy flux measurement for 10O5 and AN2. No induction of autophagy or effects (right panels, assessed by Incucyte (Sartorius) life cell imaging) on cell growth was […]
RR_figure 6: Autophagy flux measurement for 8F20 and AN1 show changes in autophagy flux […]
It is not clear how many biological replicates have been performed. For example, the figure legends […]

Sequence of GABARAPL2 (P60520 whole entry): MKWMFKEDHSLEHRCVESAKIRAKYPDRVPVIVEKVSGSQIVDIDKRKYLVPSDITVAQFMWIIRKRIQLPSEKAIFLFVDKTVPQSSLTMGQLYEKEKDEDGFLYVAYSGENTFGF

Compound `O=C1Nc2ccc(Br)cc2C1=Cc1cc(O)c(O)c(Br)c1` [compound 1] has a CSP (GABARAPL2; residue A19) of 0.023 ppm, a CSP (GABARAPL2; residue A23) of 0.017 ppm and a CSP (GABARAPL2; residue A58) of 0.006 ppm. For the same compound, the CSP (GABARAPL2; residue A75) was 0.00152 ppm, the CSP (GABARAPL2; residue A108) was 0.001 ppm and the CSP (GABARAPL2; residue C15) was 0.010 ppm. The CSP (GABARAPL2; residue D8) was 0.011 ppm, the CSP (GABARAPL2; residue D43) was 0.002 ppm and the CSP (GABARAPL2; residue D54) was 0.011 ppm. For the same compound, the CSP (GABARAPL2; residue D81) was 0.00158 ppm, the CSP (GABARAPL2; residue D100) was 0.002 ppm and the CSP (GABARAPL2; residue D102) was 0.015 ppm. For the same compound, the CSP (GABARAPL2; residue E7) was 0.00272 ppm, the CSP (GABARAPL2; residue E12) was 0.006 ppm and the CSP (GABARAPL2; residue E17) was 0.011 ppm. The CSP (GABARAPL2; residue E34) was 0.012 ppm, the CSP (GABARAPL2; residue E96) was 0.00425 ppm and the CSP (GABARAPL2; residue E98) was 0.005 ppm. It also gave a CSP (GABARAPL2; residue E101) of 0.005 ppm, a CSP (GABARAPL2; residue F5, estimated) of 0.010 ppm and a CSP (GABARAPL2; residue F60) of 0.006 ppm. The CSP (GABARAPL2; residue F77) was 0.00374 ppm, the CSP (GABARAPL2; residue F104) was 0.019 ppm and the CSP (GABARAPL2; residue F115) was 0.011 ppm. It also gave a CSP (GABARAPL2; residue G38) of 0.024 ppm, a CSP (GABARAPL2; residue G103) of 0.009 ppm and a CSP (GABARAPL2; residue G111) of 0.00641 ppm. The CSP (GABARAPL2; residue H9) was 0.012 ppm, the CSP (GABARAPL2; residue H13) was 0.004 ppm and the CSP (GABARAPL2; residue I21) was 0.013 ppm. For the same compound, the CSP (GABARAPL2; residue I32) was 0.024 ppm, the CSP (GABARAPL2; residue I41) was 0.011 ppm and the CSP (GABARAPL2; residue I44) was 0.005 ppm. The CSP (GABARAPL2; residue I55) was 0.003 ppm, the CSP (GABARAPL2; residue I63) was 0.00457 ppm and the CSP (GABARAPL2; residue I64) was 0.007 ppm. For the same compound, the CSP (GABARAPL2; residue I76) was 0.00122 ppm, the CSP (GABARAPL2; residue K2) was 0.007 ppm and the CSP (GABARAPL2; residue K6) was 0.010 ppm. For the same compound, the CSP (GABARAPL2; residue K20) was 0.015 ppm, the CSP (GABARAPL2; residue K24) was 0.012 ppm and the CSP (GABARAPL2; residue K35) was 0.010 ppm. For the same compound, the CSP (GABARAPL2; residue K46, estimated) was 0.005 ppm, the CSP (GABARAPL2; residue K48) was 0.050 ppm and the CSP (GABARAPL2; residue K66) was 0.004 ppm. It also gave a CSP (GABARAPL2; residue K82, estimated) of 0.002 ppm, a CSP (GABARAPL2; residue K97) of 0.005 ppm and a CSP (GABARAPL2; residue K99) of 0.004 ppm. For the same compound, the CSP (GABARAPL2; residue L11) was 0.00364 ppm, the CSP (GABARAPL2; residue L50) was 0.025 ppm and the CSP (GABARAPL2; residue L94) was 0.011 ppm. The CSP (GABARAPL2; residue L105) was 0.027 ppm, the CSP (GABARAPL2; residue M1) was 0.00659 ppm and the CSP (GABARAPL2; residue M4, estimated) was 0.003 ppm. For the same compound, the CSP (GABARAPL2; residue M61) was 0.00531 ppm, the CSP (GABARAPL2; residue M91) was 0.003 ppm and the CSP (GABARAPL2; residue P26, estimated) was 0.020 ppm. For the same compound, the CSP (GABARAPL2; residue P30, estimated) was 0.040 ppm, the CSP (GABARAPL2; residue P52, estimated) was 0.020 ppm and the CSP (GABARAPL2; residue P71, estimated) was 0.002 ppm. It also gave a CSP (GABARAPL2; residue P85, estimated) of 0.002 ppm, a CSP (GABARAPL2; residue Q40) of 0.000721 ppm and a CSP (GABARAPL2; residue Q59) of 0.00467 ppm. For the same compound, the CSP (GABARAPL2; residue Q86) was 0.003 ppm, the CSP (GABARAPL2; residue R14) was 0.018 ppm and the CSP (GABARAPL2; residue R22) was 0.020 ppm. It also gave a CSP (GABARAPL2; residue R28) of 0.016 ppm, a CSP (GABARAPL2; residue R47, estimated) of 0.020 ppm and a CSP (GABARAPL2; residue R65) of 0.00158 ppm. For the same compound, the CSP (GABARAPL2; residue R67) was 0.006 ppm, the CSP (GABARAPL2; residue S10) was 0.010 ppm and the CSP (GABARAPL2; residue S18) was 0.00255 ppm. The CSP (GABARAPL2; residue S37) was 0.048 ppm, the CSP (GABARAPL2; residue S39) was 0.003 ppm and the CSP (GABARAPL2; residue S53) was 0.014 ppm. The CSP (GABARAPL2; residue S72) was 0.00173 ppm, the CSP (GABARAPL2; residue S87) was 0.000721 ppm and the CSP (GABARAPL2; residue S88) was 0.00152 ppm. For the same compound, the CSP (GABARAPL2; residue S110) was 0.00127 ppm, the CSP (GABARAPL2; residue T56) was 0.00374 ppm and the CSP (GABARAPL2; residue T90) was 0.0011 ppm. For the same compound, the CSP (GABARAPL2; residue V16) was 0.014 ppm, the CSP (GABARAPL2; residue V29) was 0.043 ppm and the CSP (GABARAPL2; residue V31) was 0.038 ppm. The CSP (GABARAPL2; residue V33) was 0.013 ppm, the CSP (GABARAPL2; residue V42) was 0.00279 ppm and the CSP (GABARAPL2; residue V51) was 0.046 ppm. For the same compound, the CSP (GABARAPL2; residue V57) was 0.004 ppm, the CSP (GABARAPL2; residue V80) was 0.008 ppm and the CSP (GABARAPL2; residue V84) was 0.00263 ppm. For the same compound, the CSP (GABARAPL2; residue V107) was 0.006 ppm, the CSP (GABARAPL2; residue W62) was 0.015 ppm and the CSP (GABARAPL2; residue Y25) was 0.034 ppm. For the same compound, the CSP (GABARAPL2; residue Y49) was 0.064 ppm, the CSP (GABARAPL2; residue Y106) was 0.023 ppm and the CSP (GABARAPL2; residue Y109) was 0.009 ppm. For the same compound, the “autophagy induction (autophagy flux)” value [1] was “significant autophagy activation” and the “effects on cell growth (Incucyte life cell imaging)” value [1] was “profound effects on cell growth”.
